Data reported in US20130129626A1, “IN VIVO IMAGING AGENTS” (H[…] LIMITED, priority 2006, published 2013).

Assays:
CCR1 = biological target: T1, CCR1 (Homo sapiens, UniProt P32246); assay: CCR1 binding assay ([125I]-MIP-1α displacement)
T1 construct: expressed in transfected cells; host or cells: CHO-K1
T1 sequence (P32246 1-355): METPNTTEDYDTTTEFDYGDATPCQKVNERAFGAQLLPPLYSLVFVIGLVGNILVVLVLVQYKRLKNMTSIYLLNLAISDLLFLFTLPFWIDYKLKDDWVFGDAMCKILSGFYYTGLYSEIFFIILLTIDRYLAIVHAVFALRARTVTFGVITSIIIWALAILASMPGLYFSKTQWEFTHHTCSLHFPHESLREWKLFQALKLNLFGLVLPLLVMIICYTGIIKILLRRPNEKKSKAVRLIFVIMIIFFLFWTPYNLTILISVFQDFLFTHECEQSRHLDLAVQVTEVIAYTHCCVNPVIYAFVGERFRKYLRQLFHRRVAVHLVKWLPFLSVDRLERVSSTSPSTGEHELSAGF
Method: The CCR1 binding assay was performed under the following conditions, according to a method that was adapted from the literature [Ben-Baruch et al., J. Biol. Chem., 270(38), 22123-8 (1995); Pease et al., J. Biol. Chem., 273(32), 19972-6 (1998)].
Thus, Compound 8 was incubated for 3 hours at 25° C. in 50 mM HEPES, pH7.4 containing 1 mM CaCl2, 0.5% BSA, 5 mM MgCl2 and 1% DMSO with Human recombinant CHO-K1 cells in the presence of 0.02 nM [^125I]-MIP-1α. MIP-1α is Macrophage Inflammatory Protein 1α (ligand of CCR1 and CCR5).

[1] = Parallel Artificial Membrane Permeability Assay (PAMPA); format: in vitro ADME; details: prediction of blood brain barrier penetration by passive diffusion, high Pe>4.0×10^-06, low Pe<2.0×10^-06 cm/sec
Method: The permeability of the CCR compounds was measured in a Parallel Artificial Membrane Permeability Assay (PAMPA) which gives a prediction of the blood brain barrier penetration by passive diffusion [Di et al, Eur. J. Med. Chem., 38(3), 223-232 (2003)].
The commonly accepted classification ranges for this PAMPA assay are as follows: • High predicted passive BBB permeation: Pe>4.0×10^−06 cm/sec. • Low predicted passive BBB permeation: Pe<2.0×10^−06 cm/sec.
Uncertain prediction of BBB permeation: 2.0×10^−06 cm/sec<Pe<4.0×10^−06 cm/sec.

CCR2B = biological target: T2, CCR2B (Homo sapiens, UniProt P41597); assay: CCR2B binding assay ([125I]-MCP-1 displacement)
T2 construct: expressed in transfected cells; host or cells: CHO-K1
T2 sequence (P41597 1-360 isoform P41597-2): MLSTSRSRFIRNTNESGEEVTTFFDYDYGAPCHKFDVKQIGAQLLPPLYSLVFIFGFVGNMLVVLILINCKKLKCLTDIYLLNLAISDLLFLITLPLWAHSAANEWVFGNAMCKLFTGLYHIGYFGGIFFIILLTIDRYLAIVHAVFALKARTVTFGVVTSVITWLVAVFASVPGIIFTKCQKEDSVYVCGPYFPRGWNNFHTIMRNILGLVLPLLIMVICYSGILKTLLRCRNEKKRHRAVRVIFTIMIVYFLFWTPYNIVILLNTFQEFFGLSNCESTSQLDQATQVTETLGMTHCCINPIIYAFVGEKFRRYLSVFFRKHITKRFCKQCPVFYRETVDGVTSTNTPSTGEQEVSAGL
Method: CCR2B binding assay was performed under the following conditions, according to a method that was adapted from the literature [Gong et al., J. Biol. Chem., 272, 11682-5 (1997); Moore et al., J. Leukoc. Biol., 62, 911-5 (1997)].
Thus, Compound 8 was incubated for 1 hour at 25° C. in 25 mM HEPES, pH7.4 containing 1 mM CaCl2, 0.5% BSA, 5 mM MgCl2, 0.1% NaN3 and 1% DMSO with Human recombinant CHO-K1 cells in the presence of 0.1 nM [^125I]-MCP-1. MCP-1 is monocyte chemoattractant protein (the ligand of CCR2).

CCR5 = biological target: T3, CCR5 (Homo sapiens, UniProt P51681); assay: CCR5 binding assay ([125I]-MIP-1β displacement)
T3 construct: expressed in transfected cells; host or cells: CHO-K1
T3 sequence (P51681 whole entry): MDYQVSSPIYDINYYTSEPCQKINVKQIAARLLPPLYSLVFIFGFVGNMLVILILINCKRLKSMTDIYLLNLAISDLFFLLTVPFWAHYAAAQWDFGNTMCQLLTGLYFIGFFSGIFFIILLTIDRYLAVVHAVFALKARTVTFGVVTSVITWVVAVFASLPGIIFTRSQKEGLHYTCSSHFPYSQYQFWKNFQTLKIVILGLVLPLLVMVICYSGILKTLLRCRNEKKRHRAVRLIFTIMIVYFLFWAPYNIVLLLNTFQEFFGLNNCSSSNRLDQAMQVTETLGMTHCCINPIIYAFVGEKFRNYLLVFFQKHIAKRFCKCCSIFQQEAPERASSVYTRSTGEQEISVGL
Method: CCR5 binding assay was performed under the following conditions, according to a method that was adapted from the literature [Samson et al., J. Biol. Chem., 272, 24934-41 (1997)].
Thus, Compound 8 was incubated for 2 hours at 25° C. in 50 mM HEPES, pH7.4 containing 1 mM CaCl2, 0.5% BSA, 5 mM MgCl2 and 1% DMSO with Human recombinant CHO-K1 cells in the presence of 0.1 nM [^125I]-MIP-1β, where MIP-1β is Macrophage Inflammatory Protein 1β.

## Cc1ccc(N(CCCN2CCC(Cc3ccc(F)cc3)CC2)C(=O)C2CCN(C(=O)CF)CC2)cc1Cl [Compound 8]
CCR1; 10 μM Compound 8, Human recombinant CHO-K1 cells, 0.02 nM [125I]-MIP-1α, 3 hours at 25° C.
  inhibition at 10 µM: 32%
CCR1; summary statement of Example 6
  CCR1 binding (in words): does not bind
[1]
  Papp: 68 nm/s
CCR2B; 10 μM concentration, Human recombinant CHO-K1 cells, 0.1 nM [125I]-MCP-1, 1 hour at 25° C.
  inhibition of the binding of MCP-1 to CCR2B: did not inhibit
CCR2B; summary statement of Example 6
  CCR2B binding (in words): does not bind
CCR5
  Ki: 0.79 nM
CCR5; compared with CCR1 and CCR2B binding at 10 μM
  selectivity for CCR5 over CCR1 and CCR2B (in words): selective for CCR5
CCR5; summary statement of Example 6
  CCR5 binding (in words): high affinity
